Assay results: US8309560B2, “Methods and compositions for ameliorating the undesirable effects of chemotherapy” (Sound Pharmaceuticals Incorporated, priority 2001, dated 2012)

Tests used:
inner ear hair cells = assay: Cochlea explant culture, inner ear hair cell count after cisplatin; format: cell-based, mouse; settings: 43 μM cisplatin plus 47 μM Ebselen, 24 hours (FIG. 7)
Protocol: Three cochlea per treatment, obtained from P3-4 mouse pups, were cultured in 0.4 micrometer MilliCell-CM inserts with NeuroBasal A medium plus B27 supplement. After 24 hours in culture Ebselen was added to the medium, incubated for ten minutes, and then cisplatin was added to the medium at a final concentration of 43 μM. A first control treatment included 43 μM cisplatin. A second control treatment included 47 μM Ebselen without the addition of cisplatin. All cultures were incubated for 24 hours at 37° C. in 5% carbon dioxide.
The explants were then harvested, fixed, and stained with calbindin (which detects hair cells) and DAPI (4′,6-Diamindino-2-phenylindole; for detection of nuclear DNA).

[1] = tested on: NuTu-19 ovarian cancer cells; assay: MTS cell viability assay of cultured NuTu-19 cells; format: cell-based; settings: for inhibition of the ability of cisplatin to kill NuTu-19 ovarian cancer tumor cells in culture: single chemoprotectant plus cisplatin 43 μM (FIG. 2-4)
Protocol: NuTu-19 cells were plated at a density of 3,000 cells per well in 96 well culture dishes, and incubated at 37° C., in the presence of 5% carbon dioxide, for 24 hours. N-acetylcysteine, Ebselen or allopurinol were incubated for one hour, or for four hours, with the NuTu-19 cells, then cisplatin was added to the cultures which were further incubated at 37° C., in the presence of 5% carbon dioxide, for 24 hours. The NuTu-19 cells were then rinsed with media and incubated in […] cisplatin for an additional 24 hours.
The NuTu-19 cells were then rinsed twice with phosphate buffered saline (PBS), then MTS assays were performed to measure the number of living cells. MTS is an abbreviation for (3-(4,5-dimethylthiazol-2-yl)-5-(3-carboxymethoxyphenyl)-2-(4-sulfophenyl)-2H-tetrazolium. The MTS assay is a colorimetric method for determining the number of viable cells based upon physiologic catabolism of MTS to a formazan product that is soluble in tissue culture medium. The absorbance of the formazan product at 490 nm can be measured directly from a 96 well plate using a plate reader. Increased absorbance at 490 nm correlates with increased production of formazan in a well. This is typically due to more viable cells present in a well.

[2] = tested on: cochlear outer hair cells; assay: Count of outer auditory hair cells in excised cochleae after cisplatin; format: in vivo, rat; settings: rats, cisplatin plus Ebselen compared to cisplatin without Ebselen (FIG. 10A, 10B)
Protocol: (§1) Auditory Evoked Brainstem Response (ABR) was used to assess hearing in rats before and after exposure to cisplatin and chemoprotectants. Ebselen or DMSO (control vehicle) were introduced intraperitoneally into rats one hour before intraperitoneal administration of cisplatin at a dosage of 16 mg/kg body weight. Seventy two hours after delivery of cisplatin, ABR data were collected, animals were sacrificed, cochleae were collected, dissected, stained with FITC-phalloidin (to detect F-Actin in hair cells), and DAPI (to detect nuclear DNA).
Additionally, cochleae were excised from rats treated with the combination of cisplatin and Ebselen as described in this Example. Cochleae were also excised from rats treated with cisplatin and saline and DMSO (control). The number of outer auditory hair cells in the excised cochlea were counted at intervals of 0.1 mm along the cochlea. Representative results from a control rat and a treated rat are shown in FIG. 10A and FIG. 10B, respectively.

hearing in rats = assay: Auditory Evoked Brainstem Response (ABR), permanent threshold shift after cisplatin; format: in vivo, rat; settings: cisplatin 16 mg/kg plus Ebselen 16 mg/kg i.p., compared to cisplatin without Ebselen, 72 hours (FIG. 8)
Protocol: as §1

Row | Structure (SMILES) | number of inner ear hair cells (protection from damage by cisplatin in vitro) (inner ear hair cells) | inhibition of the ability of cisplatin to kill NuTu-19 ovarian cancer tumor cells in culture [1] | percentage of outer hair cells missing in cochleae [2] | permanent threshold shift (PTS) in hearing at 8, 16, 24 and 32 kHz (hearing in rats) | percentage of live, cultured NuTu-19 ovarian cancer cells ([1]; incubation for 24 hours in the presence of cisplatin (FIG. 1))
1 | O=c1c2ccccc2[se]n1-c1ccccc1 [Ebselen, 2-phenyl-1,2-benzoisoselenazol-3(2H)-one] | protects | does not inhibit | less | less | 
2 | CC(=O)N[C@@H](CS)C(=O)O [N-acetylcysteine, N-acetyl-L-Cysteine] |  | does not inhibit |  |  | 
3 | Oc1ncnc2[nH]ncc12 [allopurinol, 4-hydroxypyrazolo[3,4-d]pyrimidine] |  | does not inhibit |  |  | 
4 | N.N.[Cl][Pt][Cl] [cisplatin, cis-diamminedichloroplatinum] |  |  |  |  | killed
